We go through 8 compounds from paper PMC4893804 (Journal of medicinal chemistry, 2015).

In one assay the target is M184I HIV-1 RT (Human immunodeficiency virus type 1 group M subtype B, UniProt P03366, M783I). The assay is described as follows: Mutant HIV-1 RT assay.
The next assay concerns the target Human DNA Pol β (Homo sapiens, UniProt P06746). The assay is described as follows: Enzyme assay with human DNA polymerase β. The class given is biochemical.
For the next assay, the target named is HSV-1 DNA polymerase (Human herpesvirus 1, UniProt P04293). The experiment in a line: Enzyme assay with HSV-1 DNA polymerase. The assay is classed as biochemical.
HSV-1 DNA polymerase, sequence (P04293 whole entry): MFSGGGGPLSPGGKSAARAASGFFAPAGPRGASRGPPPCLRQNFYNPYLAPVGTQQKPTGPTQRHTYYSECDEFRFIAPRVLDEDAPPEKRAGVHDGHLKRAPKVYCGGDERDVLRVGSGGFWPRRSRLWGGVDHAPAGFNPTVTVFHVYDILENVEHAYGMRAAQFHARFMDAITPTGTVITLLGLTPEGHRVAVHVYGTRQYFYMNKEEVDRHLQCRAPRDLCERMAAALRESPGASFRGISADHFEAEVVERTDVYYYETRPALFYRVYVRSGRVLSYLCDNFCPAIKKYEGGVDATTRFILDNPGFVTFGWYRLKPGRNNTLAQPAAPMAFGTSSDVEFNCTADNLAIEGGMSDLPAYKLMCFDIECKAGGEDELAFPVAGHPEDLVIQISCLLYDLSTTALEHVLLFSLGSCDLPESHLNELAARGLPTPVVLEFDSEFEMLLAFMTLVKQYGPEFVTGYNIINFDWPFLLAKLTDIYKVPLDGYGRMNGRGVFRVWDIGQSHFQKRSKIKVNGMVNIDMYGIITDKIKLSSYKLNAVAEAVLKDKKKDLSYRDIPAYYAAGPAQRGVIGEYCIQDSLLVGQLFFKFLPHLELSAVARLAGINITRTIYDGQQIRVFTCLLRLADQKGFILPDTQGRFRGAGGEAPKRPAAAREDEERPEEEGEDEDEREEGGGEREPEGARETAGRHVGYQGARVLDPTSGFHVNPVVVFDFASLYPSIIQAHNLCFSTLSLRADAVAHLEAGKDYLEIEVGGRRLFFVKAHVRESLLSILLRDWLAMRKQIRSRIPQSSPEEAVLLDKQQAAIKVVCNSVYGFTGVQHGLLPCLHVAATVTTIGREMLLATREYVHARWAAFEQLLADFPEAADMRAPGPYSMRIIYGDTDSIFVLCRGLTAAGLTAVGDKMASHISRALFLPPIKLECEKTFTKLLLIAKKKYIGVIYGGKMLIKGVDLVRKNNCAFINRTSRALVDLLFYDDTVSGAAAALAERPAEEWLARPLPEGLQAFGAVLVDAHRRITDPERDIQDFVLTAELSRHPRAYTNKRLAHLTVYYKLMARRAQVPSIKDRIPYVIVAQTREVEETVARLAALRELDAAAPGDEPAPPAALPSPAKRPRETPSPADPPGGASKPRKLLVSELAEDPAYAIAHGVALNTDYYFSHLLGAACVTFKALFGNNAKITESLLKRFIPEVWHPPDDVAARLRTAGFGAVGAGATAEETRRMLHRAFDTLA
Assay [1] deals with HCMV DNA polymerase (UL54) (Human cytomegalovirus, UniProt P08546). The experiment in a line: Enzyme assay with HCMV DNA polymerase. The assay is classed as biochemical. As to conditions: IC50 HCMV DNA Pol, activated calf thymus DNA, [3H]dTTP.
HCMV DNA polymerase (UL54), sequence (P08546 whole entry): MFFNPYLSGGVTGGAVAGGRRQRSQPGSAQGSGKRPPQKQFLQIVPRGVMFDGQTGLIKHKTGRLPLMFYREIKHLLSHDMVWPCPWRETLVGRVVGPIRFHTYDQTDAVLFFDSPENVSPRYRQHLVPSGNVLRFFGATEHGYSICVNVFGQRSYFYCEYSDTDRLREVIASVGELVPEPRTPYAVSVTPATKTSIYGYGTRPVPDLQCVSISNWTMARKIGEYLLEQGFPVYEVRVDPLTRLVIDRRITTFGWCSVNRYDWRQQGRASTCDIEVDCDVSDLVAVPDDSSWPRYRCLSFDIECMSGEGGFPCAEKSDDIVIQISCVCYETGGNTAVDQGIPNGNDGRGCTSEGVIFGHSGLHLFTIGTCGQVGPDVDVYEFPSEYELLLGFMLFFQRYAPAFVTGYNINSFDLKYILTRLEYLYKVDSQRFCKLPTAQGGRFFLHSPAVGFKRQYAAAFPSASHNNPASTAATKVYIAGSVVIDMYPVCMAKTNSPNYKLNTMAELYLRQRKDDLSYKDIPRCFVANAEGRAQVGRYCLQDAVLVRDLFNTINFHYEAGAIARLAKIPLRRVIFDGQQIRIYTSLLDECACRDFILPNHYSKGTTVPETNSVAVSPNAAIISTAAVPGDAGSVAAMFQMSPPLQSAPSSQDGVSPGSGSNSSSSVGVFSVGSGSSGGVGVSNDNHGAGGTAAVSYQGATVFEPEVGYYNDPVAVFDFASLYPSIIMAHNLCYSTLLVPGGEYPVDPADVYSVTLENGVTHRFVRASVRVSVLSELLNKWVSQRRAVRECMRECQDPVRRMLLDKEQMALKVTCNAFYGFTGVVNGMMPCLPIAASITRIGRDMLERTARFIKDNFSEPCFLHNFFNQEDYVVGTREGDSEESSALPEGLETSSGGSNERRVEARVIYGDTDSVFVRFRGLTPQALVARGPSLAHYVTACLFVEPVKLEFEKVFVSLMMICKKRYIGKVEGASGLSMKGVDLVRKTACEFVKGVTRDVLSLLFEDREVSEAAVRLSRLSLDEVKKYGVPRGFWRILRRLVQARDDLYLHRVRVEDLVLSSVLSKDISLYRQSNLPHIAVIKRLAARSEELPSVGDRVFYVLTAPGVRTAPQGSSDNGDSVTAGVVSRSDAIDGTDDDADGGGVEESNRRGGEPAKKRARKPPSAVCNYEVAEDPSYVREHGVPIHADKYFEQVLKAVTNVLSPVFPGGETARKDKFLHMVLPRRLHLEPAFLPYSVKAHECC
The target of a further assay is HIV-1 RT (Human immunodeficiency virus type 1 group M subtype B, UniProt P03366). The experiment in a line: HIV-1 reverse transcriptase assay with homopolymeric template/primers. The assay is classed as biochemical.
The target in another assay is VZV DNA polymerase (Varicella-zoster virus, UniProt P09252). The assay is described as follows: Enzyme assay with VZV DNA polymerase. The class given is biochemical.
VZV DNA polymerase, sequence (P09252 whole entry): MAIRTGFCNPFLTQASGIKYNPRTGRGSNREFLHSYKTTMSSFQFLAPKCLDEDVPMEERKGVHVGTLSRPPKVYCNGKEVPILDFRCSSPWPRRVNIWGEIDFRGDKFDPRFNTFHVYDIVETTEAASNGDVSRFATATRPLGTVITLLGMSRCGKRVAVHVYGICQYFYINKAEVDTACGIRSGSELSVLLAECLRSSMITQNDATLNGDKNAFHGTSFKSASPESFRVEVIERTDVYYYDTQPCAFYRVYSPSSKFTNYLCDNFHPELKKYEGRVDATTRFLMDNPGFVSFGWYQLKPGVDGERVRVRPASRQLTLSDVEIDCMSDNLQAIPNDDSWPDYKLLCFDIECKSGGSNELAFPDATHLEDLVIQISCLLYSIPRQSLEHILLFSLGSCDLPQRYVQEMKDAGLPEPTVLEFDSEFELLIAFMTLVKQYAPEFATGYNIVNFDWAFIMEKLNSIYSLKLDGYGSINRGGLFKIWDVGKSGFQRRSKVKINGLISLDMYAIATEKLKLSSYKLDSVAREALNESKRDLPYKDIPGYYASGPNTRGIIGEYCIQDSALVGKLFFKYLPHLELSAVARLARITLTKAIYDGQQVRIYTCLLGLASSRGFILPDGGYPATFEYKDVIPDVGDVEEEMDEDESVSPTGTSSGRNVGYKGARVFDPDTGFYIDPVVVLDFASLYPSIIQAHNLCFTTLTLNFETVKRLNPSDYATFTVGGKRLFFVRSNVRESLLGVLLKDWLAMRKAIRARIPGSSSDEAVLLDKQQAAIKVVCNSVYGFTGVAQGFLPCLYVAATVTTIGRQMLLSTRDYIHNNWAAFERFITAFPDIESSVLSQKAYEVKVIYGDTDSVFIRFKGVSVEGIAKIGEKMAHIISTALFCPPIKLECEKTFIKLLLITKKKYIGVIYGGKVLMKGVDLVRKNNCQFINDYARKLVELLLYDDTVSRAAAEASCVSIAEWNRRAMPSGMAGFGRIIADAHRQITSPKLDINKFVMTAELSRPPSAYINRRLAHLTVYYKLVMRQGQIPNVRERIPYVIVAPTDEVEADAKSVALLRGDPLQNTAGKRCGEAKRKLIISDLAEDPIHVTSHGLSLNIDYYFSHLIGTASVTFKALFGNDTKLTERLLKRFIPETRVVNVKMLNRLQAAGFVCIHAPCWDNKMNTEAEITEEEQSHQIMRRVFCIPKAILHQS
In a further assay the target is Y115F HIV-1 RT (Human immunodeficiency virus type 1 group M subtype B, UniProt P03366, Y714F). The assay is described as follows: Mutant HIV-1 RT assay.
A further assay addresses T1, Human DNA Pol α (Homo sapiens, UniProt P09884).
T1 sequence (P09884 1-1462): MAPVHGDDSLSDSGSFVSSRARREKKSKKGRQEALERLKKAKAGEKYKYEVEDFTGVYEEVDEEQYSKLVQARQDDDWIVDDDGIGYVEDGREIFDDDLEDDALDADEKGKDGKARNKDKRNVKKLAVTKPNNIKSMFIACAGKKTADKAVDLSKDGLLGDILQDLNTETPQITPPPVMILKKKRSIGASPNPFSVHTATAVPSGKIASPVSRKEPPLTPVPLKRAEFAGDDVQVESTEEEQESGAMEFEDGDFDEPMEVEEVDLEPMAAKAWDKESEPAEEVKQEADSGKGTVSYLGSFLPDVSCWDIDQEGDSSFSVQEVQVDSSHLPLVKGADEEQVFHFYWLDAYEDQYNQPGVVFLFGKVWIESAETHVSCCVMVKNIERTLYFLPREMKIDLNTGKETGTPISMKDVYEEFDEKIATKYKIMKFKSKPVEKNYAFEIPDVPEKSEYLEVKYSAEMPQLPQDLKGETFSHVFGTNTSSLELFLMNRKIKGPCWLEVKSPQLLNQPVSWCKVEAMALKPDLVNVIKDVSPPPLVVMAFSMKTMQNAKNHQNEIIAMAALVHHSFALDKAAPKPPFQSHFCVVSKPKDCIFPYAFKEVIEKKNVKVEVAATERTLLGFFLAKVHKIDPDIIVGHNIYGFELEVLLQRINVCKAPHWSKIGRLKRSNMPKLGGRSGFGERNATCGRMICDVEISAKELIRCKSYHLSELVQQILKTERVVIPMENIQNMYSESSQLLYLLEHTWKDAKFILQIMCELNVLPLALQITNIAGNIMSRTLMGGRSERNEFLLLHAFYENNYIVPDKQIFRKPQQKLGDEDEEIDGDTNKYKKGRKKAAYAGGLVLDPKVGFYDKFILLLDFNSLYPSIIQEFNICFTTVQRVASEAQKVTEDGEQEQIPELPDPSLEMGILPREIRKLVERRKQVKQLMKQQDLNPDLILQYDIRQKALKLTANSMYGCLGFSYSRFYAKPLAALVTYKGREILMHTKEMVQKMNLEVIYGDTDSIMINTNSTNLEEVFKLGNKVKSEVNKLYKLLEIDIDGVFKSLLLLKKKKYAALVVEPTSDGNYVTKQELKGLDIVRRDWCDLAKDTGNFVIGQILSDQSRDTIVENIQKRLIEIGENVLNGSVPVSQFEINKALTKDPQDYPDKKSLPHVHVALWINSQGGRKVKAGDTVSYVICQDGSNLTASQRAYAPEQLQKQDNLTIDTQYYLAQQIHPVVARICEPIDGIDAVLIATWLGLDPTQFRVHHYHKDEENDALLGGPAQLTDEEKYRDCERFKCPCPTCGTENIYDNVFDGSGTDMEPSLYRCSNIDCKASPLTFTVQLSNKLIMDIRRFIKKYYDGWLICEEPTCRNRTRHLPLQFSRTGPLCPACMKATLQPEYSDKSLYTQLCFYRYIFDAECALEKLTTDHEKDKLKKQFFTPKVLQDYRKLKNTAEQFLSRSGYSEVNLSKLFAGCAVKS
The assay is described as follows: Enzyme assay with human DNA polymerase α. The assay is classed as biochemical.

For assay [2], the system named is herpetic DNA polymerases (HCMV, HSV-1, VZV). The experiment in a line: Herpetic DNA polymerase assays, pooled statements in text. The class given is biochemical.
For assay [3], the system named is human DNA polymerases α and β. The assay is described as follows: Human DNA polymerase α and β assays, pooled statements in text. The class given is biochemical.
The target in assay [4] is T2, RB69/ABC5 hybrid DNA polymerase (Escherichia phage RB69, UniProt Q38087, D222A/D327A/F479V/I557M/L561V/L562T/N480A/N558A/R559L/V478W). The following applies: cited from earlier work.
T2 sequence (Q38087 whole entry D222A/D327A/V478W/F479V/N480A/I557M/N558A/R559L/L561V/L562T): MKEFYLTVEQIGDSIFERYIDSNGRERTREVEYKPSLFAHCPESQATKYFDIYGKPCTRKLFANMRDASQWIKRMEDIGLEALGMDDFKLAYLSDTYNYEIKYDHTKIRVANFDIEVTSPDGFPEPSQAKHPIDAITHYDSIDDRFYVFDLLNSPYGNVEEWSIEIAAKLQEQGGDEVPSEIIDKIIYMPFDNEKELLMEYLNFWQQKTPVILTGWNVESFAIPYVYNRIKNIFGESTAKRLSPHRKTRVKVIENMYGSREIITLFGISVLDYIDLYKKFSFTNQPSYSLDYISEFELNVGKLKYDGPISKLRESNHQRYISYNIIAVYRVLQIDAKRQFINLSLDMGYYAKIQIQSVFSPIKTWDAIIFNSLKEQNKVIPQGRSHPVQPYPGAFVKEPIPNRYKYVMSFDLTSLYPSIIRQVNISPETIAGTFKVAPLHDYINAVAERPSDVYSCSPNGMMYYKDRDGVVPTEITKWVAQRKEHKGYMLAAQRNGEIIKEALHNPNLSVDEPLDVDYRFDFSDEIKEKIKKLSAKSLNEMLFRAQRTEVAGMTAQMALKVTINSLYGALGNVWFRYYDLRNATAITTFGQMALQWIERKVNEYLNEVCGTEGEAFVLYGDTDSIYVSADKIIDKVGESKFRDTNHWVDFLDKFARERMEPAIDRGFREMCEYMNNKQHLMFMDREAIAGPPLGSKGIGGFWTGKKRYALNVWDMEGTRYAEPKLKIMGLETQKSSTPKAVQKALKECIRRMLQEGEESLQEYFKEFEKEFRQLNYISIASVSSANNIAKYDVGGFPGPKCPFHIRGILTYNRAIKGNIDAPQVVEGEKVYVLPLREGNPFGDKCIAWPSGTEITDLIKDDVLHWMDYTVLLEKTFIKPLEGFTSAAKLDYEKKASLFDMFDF
Assay [5] deals with T2, RB69/ABC5 hybrid DNA polymerase. The assay is described as follows: biochemical. Details: species or system bacteriophage RB69 / HCMV.
The target in assay [6] is bacteriophage RB69 DNA polymerase gp43 (WT) (Escherichia phage RB69, UniProt Q38087, D222A/D327A). The experiment in a line: biochemical.
bacteriophage RB69 DNA polymerase gp43 (WT), sequence (Q38087 whole entry D222A/D327A): as the sequence (Q38087 whole entry D222A/D327A/V478W/F479V/N480A/I557M/N558A/R559L/L561V/L562T) above, with W478V, V479F, A480N, M557I, A558N, L559R, V561L, T562L counted along it
[7] abbreviates: IC50 HIV-1 RT Poly rA.dT ([3H]dTTP), Table 7, Poly rA.dT, [3H]dTTP.
Where [8] appears, read: IC50 HIV-1 RT Poly rC.dG ([3H]dGTP), Poly rC.dG, [3H]dGTP.
The mark [9] stands for this setting: IC50 HIV-1 RT Poly rI.dC ([3H]dCTP), Poly rI.dC, [3H]dCTP.
Where [10] appears, read: IC50 HIV-1 RT Poly rU.dA ([3H]dATP), Poly rU.dA, [3H]dATP.
Where [11] appears, read: IC50 HIV-1 RT, poly rA.dT template/primer, [3H]dTTP.
Setting [12] is: IC50 Wild-type HIV-1 RT, Table 8, wild-type RT.

The structures appear in SMILES notation.

In the case of `Nc1ccn(C/C=C\COC(C(=O)O)P(=O)(O)O)c(=O)n1` (stereo not drawn) [Compound 6m, 2-Cis-(4-(4-amino-2-oxopyrimidin-1(2H)-yl)but-2-enyloxy)-2-phosphonoacetic acid], the IC50 at M184I HIV-1 RT is above 1.25 mM; on Human DNA Pol β, above 500 µM; at HSV-1 DNA polymerase it was 12000 ± 6000 nM; in assay [1] it was 16 ± 8 µM; at HIV-1 RT (setting [7]) it was 270 ± 33 µM; at HIV-1 RT (setting [8]) it was above 500 µM. In addition, the IC50 against HIV-1 RT (setting [9]) was 273 ± 54 µM; against HIV-1 RT (setting [10]), above 500 µM; on HIV-1 RT (setting [11]), 270 ± 33 µM; on HIV-1 RT (setting [12]) it was 318 ± 73 µM; at VZV DNA polymerase it was 2900 ± 900 nM; at Y115F HIV-1 RT, 408 ± 16 µM. Further, the IC50 at Human DNA Pol α is 414 ± 22 µM.

As to `O=C(O)C(OC/C=C\CO)P(=O)(O)O` (stereo not drawn) [Compound 6n, 2-Cis-((4-hydroxybut-2-en-1-yl)oxy)-2-phosphonoacetic acid], the “inhibitory activity against herpetic DNA polymerases (in words)” value in assay [2] is reported as “insensitive”. In addition, the “inhibitory activity against HIV-1 RT (in words)” value at HIV-1 RT is reported as “insensitive”. Moreover, the “inhibitory activity against human DNA polymerases (in words)” value in assay [3] is given as “insensitive”.

As to `Nc1nc2c(ncn2COCCOP(=O)(O)OP(=O)(O)OP(=O)(O)O)c(=O)[nH]1` [acyclovir triphosphate], in [4], the “sensitivity of chimera RB69/ABC5 to active-site inhibitors” value is “sensitive”.

In the case of `Nc1ncnc2c1ncn2C/C=C\COC(C(=O)O)P(=O)(O)O` (stereo not drawn) [Compound 6k, 2-Cis-(4-(6-amino-9H-purin-9-yl)but-2-enyloxy)-2-phosphonoacetic acid], the IC50 was at least 2.5 mM against M184I HIV-1 RT; 454 ± 28 µM at Human DNA Pol β; 2700 ± 2000 nM on HSV-1 DNA polymerase; 5.5 ± 2.1 µM in assay [1]; 404 ± 30 µM at HIV-1 RT (setting [7]); above 500 µM at HIV-1 RT (setting [8]). The IC50 against HIV-1 RT (setting [9]) was above 500 µM; at HIV-1 RT (setting [10]), 40 ± 8 µM; against HIV-1 RT (setting [11]), 404 ± 30 µM; at HIV-1 RT (setting [12]), 531 ± 154 µM; against VZV DNA polymerase, 3300 ± 400 nM; against Y115F HIV-1 RT, 630 ± 37 µM. Moreover, the IC50 at Human DNA Pol α is at least 500 µM.

On to `O=C(O)P(=O)(O)O` [PFA, phosphonoformic acid, reference compound], for which the IC50 is above 100 µM at Human DNA Pol β; 440 ± 250 nM on HSV-1 DNA polymerase; 9.8 ± 5.8 µM in assay [1]; 0.34 ± 0.01 µM against HIV-1 RT (IC50 HIV-1 RT); 0.34 ± 0.01 µM against HIV-1 RT (IC50 HIV-1 RT Poly rA.dT ([3H]dTTP)); 17 ± 2 µM at HIV-1 RT (IC50 HIV-1 RT Poly rC.dG ([3H]dGTP)). Further, the IC50 was found to be 6.8 ± 2 µM against HIV-1 RT (IC50 HIV-1 RT Poly rI.dC ([3H]dCTP)), 0.75 ± 0.13 µM at HIV-1 RT (IC50 HIV-1 RT Poly rU.dA ([3H]dATP)) and 7.7 ± 6.5 µM against Human DNA Pol α. The “sensitivity of chimera RB69/ABC5 to active-site inhibitors” value in assay [4] was “sensitive”.

Regarding `Cc1cn(C[C@@H]2CCC[C@H]2COC(C(=O)O)P(=O)(O)O)c(=O)[nH]c1=O` (relative stereo) [Compound 6o], the “inhibitory activity against herpetic DNA polymerases (in words)” value in assay [2] is reported as “poor, if any, inhibitory activity”. In assay [3], the “inhibitory activity against human DNA polymerases (in words)” value is “poor, if any, inhibitory activity”.

With `Nc1nc2c(ncn2C/C=C\COC(C(=O)O)P(=O)(O)O)c(=O)[nH]1` (stereo not drawn) [Compound 6l, 2-Cis-(4-(2-amino-6-oxo-1H-purin-9(6H)-yl)but-2-enyloxy)-2-phosphonoacetic acid], the IC50 against M184I HIV-1 RT was above 1.25 mM; against Human DNA Pol β it was above 500 µM; against HSV-1 DNA polymerase, 2100 ± 2300 nM; in assay [1], 3.6 ± 0.6 µM; against HIV-1 RT (setting [7]), at least 500 µM; at HIV-1 RT (setting [8]), above 500 µM. The IC50 is above 500 µM at HIV-1 RT (setting [9]); 369 ± 48 µM at HIV-1 RT (setting [10]); at least 500 µM against HIV-1 RT (setting [11]); at least 1250 µM on HIV-1 RT (setting [12]); 2900 nM against VZV DNA polymerase; at least 1250 µM at Y115F HIV-1 RT. In addition, it took 365 ± 91 µM to reach half-maximal inhibition at Human DNA Pol α (IC50).

Take `Cc1cn(C/C=C\COC(C(=O)O)P(=O)(O)O)c(=O)[nH]c1=O` (stereo not drawn) [Compound 6g, cis-2-(4-(2,4-Dioxo-5-methyl-pyrimidin-1-yl)but-2-enyloxy)-2-phosphonoacetic acid]: the IC50 against M184I HIV-1 RT was above 2.5 mM; against Human DNA Pol β, above 500 µM; against HSV-1 DNA polymerase, 3700 ± 1700 nM; against HIV-1 RT (setting [7]), 235 ± 16 µM; against HIV-1 RT (setting [8]), above 500 µM; against HIV-1 RT (setting [9]) it was above 500 µM. In addition, the IC50 was at least 500 µM against HIV-1 RT (setting [10]); 235 ± 16 µM at HIV-1 RT (setting [11]); 320 ± 89 µM at HIV-1 RT (setting [12]); 2200 ± 100 nM against VZV DNA polymerase; 655 ± 409 µM at Y115F HIV-1 RT; above 100 µM in [5]. In addition, the IC50 in assay [6] is above 100 µM; at Human DNA Pol α, 14 ± 7 µM. Also, the “selectivity for herpetic DNA polymerases compared to human DNA polymerase α” value in [2] (herpetic vs human DNA polymerase α) is reported as 4- to 7 fold. The “higher potency against herpetic DNA polymerases compared to butyl analogue 6h” value in assay [2] (ratio vs 6h) is 8- to 20 fold. Besides, the “superior activity against herpetic DNA polymerases than against HIV-1 RT” value in assay [2] (selectivity herpetic over HIV-1 RT) was ~ 100 fold. Moreover, the “loss of anti-HIV-1 RT activity compared to prototype thymine-α-CNP” value on HIV-1 RT (ratio of IC50 vs thymine-α-CNP) is recorded as ~ 600 fold.
